System: A2AR
Test: Affinity MS assay/screen with purified immobilized receptor
Format: binding
Conditions: 480-mix cocktails

CCNC(=O)[C@H]1O[C@@H](n2cnc3c(NCC(c4ccccc4)c4ccccc4)nc(C(=O)NCCNC(=O)NC4CCN(c5ccccn5)CC4)nc32)[C@H](O)[C@@H]1O [UK-432,097]
hit detection/selection in 480-mix screens: detected in all cocktails
